In ChEMBL document CHEMBL1759886, “Biological evaluation of phenolic constituents from the trunk of Berberis koreana” (Bioorg Med Chem Lett, 2011):

Experiments:
Format in all cases: functional, cell-based
[1] = tested on: SK-OV-3; experiment: Anticancer activity against human SKOV3 cells by SRB assay
[2] = tested on: A549; experiment: Anticancer activity against human A549 cells by SRB assay
[3] = tested on: SK-MEL-2; experiment: Anticancer activity against human SK-MEL-2 cells by SRB assay
[4] = tested on: XF498; experiment: Anticancer activity against human XF498 cells by SRB assay
[5] = tested on: BV-2; experiment: Antiinflammatory activity in mouse BV2 cells assessed as inhibition of lipopolysaccharide induced NO production

SMILES | IC50 [1] | IC50 [2] | IC50 [3] | IC50 [5] | IC50 [4]
COc1cc(C[C@H]2CO[C@H](c3ccc(O)c(OC)c3)[C@H]2CO)ccc1O [LARICIRESINOL] | > 30 µM | 24.5 µM | > 30 µM | 51.8 µM | 11.7 µM
COc1cc([C@@H](O)[C@@H](CO)Oc2ccc(CCCO)cc2OC)ccc1O | > 30 µM | > 30 µM | > 30 µM | 58.5 µM | 26.6 µM
COc1cc([C@@H]2OC[C@H]3[C@@H]2CO[C@H]3c2ccc(O)c(OC)c2)ccc1O [(-)-PINORESINOL] | > 30 µM | > 30 µM | 26.6 µM | 26.2 µM | 13.3 µM
COc1cc(C(=O)CCO)ccc1O | > 30 µM | > 30 µM | > 30 µM |  | 28.4 µM
COc1cc([C@H]2c3c(cc(OC)c(O)c3OC)C[C@@H](CO)[C@@H]2CO)cc(OC)c1O | > 30 µM | > 30 µM | > 30 µM | 69.1 µM | 7.14 µM
COc1cc([C@@H]2c3c(cc(OC)c(O)c3OC)C[C@H](CO)[C@H]2CO)cc(OC)c1O | > 30 µM | 21.2 µM | > 30 µM | 113 µM | 26.5 µM
COc1cc(C[C@@H](CO)[C@H](CO)Cc2ccc(O)c(OC)c2)ccc1O [(+)-SECOISOLARICIRESINOL] | > 30 µM | > 30 µM | 21.5 µM | 87.6 µM | 18.8 µM
COC(=O)[C@H](CO)c1cc(OC)c(O)c(OC)c1 [BERFUSSINOL] | > 30 µM | > 30 µM | 27.2 µM |  | > 30 µM
COc1cc(C[C@H]2COC(=O)[C@@H]2Cc2ccc(O)c(OC)c2)ccc1O [MATAIRESINOL] | > 30 µM | 23.8 µM | > 30 µM | 94.5 µM | 23.7 µM
COc1cc(C(=O)O)ccc1O [VANILLIC ACID] | > 30 µM | > 30 µM | > 30 µM |  | > 30 µM
CNC(=N)NCCC[C@H](N)C(=O)O [TILARGININE] |  |  |  | 17.1 µM | 
COc1cc([C@@H]2OC[C@@H]3[C@H]2CO[C@H]3c2ccc(O[C@@H]3O[C@H](CO)[C@@H](O)[C@H](O)[C@H]3O)c(OC)c2)ccc1O | > 30 µM | > 30 µM | > 30 µM | 144 µM | 25.4 µM
COc1cc(C(=O)CCO)cc(OC)c1O | > 30 µM | > 30 µM | > 30 µM |  | 24.3 µM
COc1ccc(CC(=O)O)cc1 | > 30 µM | > 30 µM | > 30 µM |  | 28.1 µM

Now from value to compound, other results behind:

IC50 [1] | IC50 [2] | IC50 [3] | IC50 [5] | SMILES | IC50 [4]
> 30 µM | 20.2 µM | 24.9 µM | 152 µM | COc1cc([C@@H]2c3cc(O)c(OC)cc3C[C@H](CO)[C@H]2CO)ccc1O [(-)-ISOLARICIRESINOL] | 22.8 µM
> 30 µM | > 30 µM | > 30 µM | 201 µM | COc1cc(C[C@@H](CO)[C@](O)(CO)Cc2ccc(O)c(OC)c2)ccc1O | 27.6 µM
> 30 µM | 22.4 µM | 23.3 µM | 28.8 µM | COc1cc([C@H]2Oc3c(OC)cc(CCCO)cc3[C@@H]2CO)ccc1O [DIHYDRODEHYDRODICONIFERY ALCOHOL] | 13.4 µM
> 30 µM | > 30 µM | 14.5 µM | 13.5 µM | COc1cc([C@@H]2OC[C@@H]3[C@H]2CO[C@H]3c2cc(OC)c(O)c(OC)c2)cc(OC)c1O | 8.82 µM
> 30 µM | > 30 µM | 27.3 µM | 90.9 µM | COc1ccc([C@H](O)[C@@H](CO)Oc2c(OC)cc([C@@H]3Oc4c(OC)cc(CCCO)cc4[C@H]3CO)cc2OC)cc1OC [BERBIKONOL] | 19.3 µM
> 30 µM | 21.2 µM | > 30 µM |  | COc1cc(/C=C/C=O)ccc1O [CONIFERYL ALDEHYDE] | > 30 µM
21.5 µM | 20.1 µM | 25.1 µM | 44.4 µM | COc1ccc(C[C@H]2CO[C@H](c3ccc(OC)c(OC)c3)[C@H]2CO)cc1OC | 15.4 µM
1.81 µM |  |  |  | COc1cc([C@@H]2c3cc4c(cc3[C@@H](O[C@@H]3O[C@@H]5CO[C@@H](C)O[C@H]5[C@H](O)[C@H]3O)[C@H]3COC(=O)[C@H]23)OCO4)cc(OC)c1O [ETOPOSIDE] | 
